# Experimental data reported in US20250368618A1, “BENZOHETEROCYCLIC SUBSTITUTED TETRAHYDROISOQUINOLINE COMPOUND SALT FORM AND PREPARATION METHOD THEREFOR” (SHANGHAI JEYOU PHARMACEUTICAL CO., LTD., priority 2022, published 2025).
# Experiments:
# Sprague-Dawley rats [1] = assay: Effect of multiple administrations on serum phosphorus concentration in rats (serum phosphorus, 24-h urinary phosphorus and sodium, fecal form); assay type: in vivo, rat; conditions: for 24-h nP, course: after 15 days; for serum phosphorus concentration: intragastric twice a day
# Method: The compound represented by formula (I) was evaluated by measuring the serum phosphorus concentration, concentrations of urinary phosphorus and urinary sodium, and fecal form in rats. Six-week-old Sprague-Dawley rats were purchased from Beijing Vital River Laboratory Animal Technology Co., Ltd. Two rats in each cage were placed in the SPF-grade animal room, and the rats were acclimatized for about one week. Throughout the study, the animals were given ad libitum access to feed and water, and the light cycle was 12 h of light and 12 h of darkness. Animal groups: vehicle group, n=5; Tenapanor 0.05 mg/kg, n=5; compound represented by formula (I) 0.01 mg/kg, n=5; compound represented by formula (I) 0.05 mg/kg, n=5; compound represented by formula (I) 0.5 mg/kg, n=5; and compound represented by formula (I) 1.0 mg/kg, n=5.
# After the start of the experiment, the feeding rhythm of the rats was adjusted to diurnal feeding in a manner of overnight fasting for 16 h and restoring feed for 8 h during the day. After the start of administration, the test compound or vehicle (0.5% Tween 80+99.5% distilled water) was administered intragastrically twice a day during the feeding period, with an interval of 4 h, for 14 consecutive days. The body weight of animals and food consumption were measured daily. The serum phosphorus concentration (including baseline values before the administration), 24-hour urinary phosphorus excretion amount, and 24-hour urinary sodium excretion amount were measured 1-2 times a week, and fecal form in the collection funnel was scored (fecal form was assessed by two independent observations). Fecal form scoring criteria: 1. normal pellets; 2. slightly soft feces (pellets adhered to the side wall of the collector due to moisture); 3. soft feces (loss of normal shape of the pellets); 4. loose and amorphous (complete loss of shape, accompanied by a blot pattern); and 5. diarrhea (watery feces). Fecal form score (FFS) in rats was determined by averaging two independent observation scores for all rats in the same group (n=5); and the mean value for the vehicle group was 1.
# After being left to stand at room temperature for 2 h, the blood was centrifuged at 4° C. at 4500 g for 10 min; the urine was centrifuged at 4° C. at 3220 g for 5 min; and the serum phosphorus concentration and urinary phosphorus concentration (phosphomolybdic acid ultraviolet endpoint colorimetric method), as well as urinary sodium concentration (indirect ion electrode method) were measured.
# (§1) The results were expressed as mean±standard error (Means±SEM), n=5 animals/group. The urinary phosphorus excretion amount (or urinary sodium excretion amount) in the rats was normalized and corrected against the respective dietary phosphorus (or sodium) intake. The formula was as follows: normalized correction value of urinary phosphorus excretion amount (expressed as nP)=urinary phosphorus excretion amount+dietary phosphorus intake; normalized correction value of urinary sodium excretion amount (expressed as nNa)=urinary sodium excretion amount+dietary sodium intake; two-way analysis of variance was adopted; and fecal form score was verified by the non-parametric test. *, p<0.05; ** p<0.01; *** p<0.001; ****, p<0.0001.
# Sprague-Dawley rats [2] = assay: Inhibition of phosphate and sodium absorption in intestinal tract of rats after single administration (urinary phosphorus, urinary sodium, fecal form); assay type: in vivo, rat; conditions: normal rats
# Method: The compound represented by formula (I) was evaluated by measuring the concentrations of urinary phosphorus and urinary sodium, as well as fecal form.
# Six-week-old Sprague-Dawley rats were purchased from Beijing Vital River Laboratory Animal Technology Co., Ltd. Two rats in each cage were placed in the SPF-grade animal room, and the rats were acclimatized for about one week. Throughout the study, the animals were given ad libitum access to feed and water, and the light cycle was 12 h of light and 12 h of darkness. Animal groups: vehicle group, n=5; tenapanor 0.3 mg/kg group, n=5; compound represented by formula (I) 0.03 mg/kg group, n=5; compound represented by formula (I) 0.1 mg/kg group, n=5; compound represented by formula (I) 0.3 mg/kg group, n=5; and compound represented by formula (I) 1.0 mg/kg group, n=5.
# On the day of the experiment, the test compound or vehicle (0.5% Tween 80+99.5% distilled water) was administered intragastrically to the animals after 8 h of fasting. Then, the animals were transferred into metabolism cages for single-cage feeding, and the feed was restored. Sixteen hours after administration, urine samples were collected, food consumption was recorded, and fecal form in the collection funnel was evaluated by two independent observations. Fecal form scoring criteria: 1. normal pellets; 2. slightly soft feces (pellets adhered to the side wall of the collector due to moisture); 3. soft feces (loss of normal shape of the pellets); 4. loose and amorphous (complete loss of shape, accompanied by a blot pattern); and 5. diarrhea (watery feces). Fecal form score (FFS) in rats was determined by averaging two independent observation scores for all rats in the same group (n=5); and the mean value for the vehicle group was 1.
# The urine was centrifuged at 4° C. at 3220 g for 5 min, and the urinary phosphorus concentration (phosphomolybdic acid ultraviolet endpoint colorimetric method) and urinary sodium concentration (ion selective electrode method) were measured.
# as §1, with “error (Means±SEM).” for “error (Means±SEM), n=5 animals/group.”, “intake; one-way” for “intake; two-way”, “p<0.05; **,” for “p<0.05; **”, “p<0.01; ***,” for “p<0.01; ***”
smiles,measurement,setting,value
CN1Cc2c(Cl)cc(Cl)cc2[C@H](c2ccc3cn(CCOCCOCCNC(=O)NCCCCNC(=O)NCCOCCOCCn4cc5ccc([C@@H]6CN(C)Cc7c(Cl)cc(Cl)cc76)cc5n4)nc3c2)C1 [compound represented by formula (I)],24-h nP,"Sprague-Dawley rats [1]; after 1 day of treatment, 1.0 mg/kg, vs vehicle",significantly reduced
same,24-h nP (urinary phosphorus excretion amount normalized to dietary phosphorus intake),"Sprague-Dawley rats [1]; after 1 day of treatment, 0.01, 0.05, 0.5 and 1.0 mg/kg, vs vehicle",decreasing trend
same,24-h nNa (urinary sodium excretion amount normalized to dietary sodium intake),"Sprague-Dawley rats [1]; after 1 day of treatment, 0.01, 0.05, 0.5 and 1.0 mg/kg, vs vehicle control",significantly reduced
same,"24-h nP, dose dependence","Sprague-Dawley rats [1]; after 1 day of treatment, 0.01-1.0 mg/kg","The higher the dose, the lower the nP"
same,fecal form score,"Sprague-Dawley rats [1]; after 1 day of treatment, 0.05, 0.5 and 1.0 mg/kg, vs vehicle control",increased significantly
same,"24-h nNa, course","Sprague-Dawley rats [1]; after 10 days of treatment, 0.01 mg/kg and 0.05 mg/kg",rising trend
same,24-h nP,"Sprague-Dawley rats [1]; after 10 days of treatment, 0.01, 0.05, 0.5 and 1.0 mg/kg, vs vehicle",significantly reduced
same,"24-h nP, course",Sprague-Dawley rats [1],tended to be stable
same,"24-h nP, course",Sprague-Dawley rats [1]; low-dose group 0.01 mg/kg,rising trend
same,"loose feces, severity",Sprague-Dawley rats [1]; high-dose groups 0.5 mg/kg and 1.0 mg/kg,more severe loose feces
same,frequency of loose feces observed,"Sprague-Dawley rats [1]; high-dose groups 0.5 mg/kg and 1.0 mg/kg, as the administration continued",decreased
same,serum phosphorus concentration,"Sprague-Dawley rats [1]; after 4 days of treatment, 0.5 mg/kg or 1.0 mg/kg, vs vehicle control",significantly reduced
same,serum phosphorus concentration,"Sprague-Dawley rats [1]; after 10 days of treatment, 0.01, 0.05, 0.5 and 1.0 mg/kg, vs vehicle control",significantly reduced
same,"loose feces, occurrence",Sprague-Dawley rats [1]; low dose 0.01 mg/kg,No rats had loose feces
same,"serum phosphorus concentration, course","Sprague-Dawley rats [1]; twice a day, after 10 days, groups other than the highest dose 1.0 mg/kg",tended to be stable
same,urinary phosphorus excretion amount (nP),"Sprague-Dawley rats [2]; single intragastric administration, 0.03, 0.1, 0.3, 1.0 mg/kg, urine 16 h after administration, dose dependence",dose-effect relationship
same,water content in the feces (fecal form score),"Sprague-Dawley rats [2]; single intragastric administration, 0.03-1.0 mg/kg, 16 h",tendency to increase with the increase in the dose
same,urinary phosphorus excretion amount (nP),"Sprague-Dawley rats [2]; single intragastric administration, doses of 0.3 mg/kg and 1.0 mg/kg, urine 16 h after administration",significantly reduce
same,"urinary phosphorus excretion amount (nP), comparison with Tenapanor","Sprague-Dawley rats [2]; single intragastric administration, same dose 0.3 mg/kg of both",better than Tenapanor
same,urinary sodium excretion amount (nNa),"Sprague-Dawley rats [2]; single intragastric administration, urine 16 h after administration",significantly reduce
